Measurements from patent US11530244B2, “Cyclic polypeptides for PCSK9 inhibition” (priority 2018, dated 2022).
Starred links: 1 amine or outer side, 2 acyl side, 3 side chain; linkers in the order of their positions; H or OH if unused. Positions of bridges follow the written chain, without caps; N, C: chain ends. Non-standard residues stand in square brackets, D forms with d. Residues, ends and D or L forms follow the SMILES beside them. *: point of attachment. 2Furoyl(5-aminomethyl) = O=C(c1ccc(CN[*:1])o1)[*:2]; Trp(5-F) = N[C@@H](Cc1c[nH]c2ccc(F)cc12)C(=O)O; dPro(cis-4-NH2) = N[C@H]1CN[C@@H](C(=O)O)C1; mXylylene(5-F) = Fc1cc(C[*:1])cc(C[*:2])c1; Pro(cis-4-F) = O=C(O)[C@@H]1C[C@H](F)CN1; Lys(N3) = [N-]=[N+]=NCCCC[C@H](N)C(=O)O; X4 = O=C(CCSCc1cccc(CSCCN[*:1])c1)[*:2]; Orn(N3) = [N-]=[N+]=NCCC[C@H](N)C(=O)O; mXylylene = c1cc(C[*:1])cc(C[*:2])c1; AEF = NCCOc1ccc(C[C@H](N)C(=O)O)cc1; X53 = C#CCCC[C@H](N[*:1])C(=O)[*:2]; cisHyp = O=C(O)[C@@H]1C[C@H](O)CN1; Hyp = O=C(O)[C@@H]1C[C@@H](O)CN1; aThr = C[C@H](O)[C@H](N)C(=O)O; αMeP = C[C@@]1(C(=O)O)CCCN1; dOrn = NCCC[C@@H](N)C(=O)O; Isovaleryl = CC(C)CC(=O)*; Mpa = O=C(O)CCS

These compounds were tested against PCSK9 (Homo sapiens (Human), UniProt Q8NBP7) (assay: PCSK9 Alexa FRET Standard assay (displacement of AlexaFluor647 tagged cyclic peptide Reagent A)). Conditions: IC50.
PCSK9, sequence (Q8NBP7 153-692): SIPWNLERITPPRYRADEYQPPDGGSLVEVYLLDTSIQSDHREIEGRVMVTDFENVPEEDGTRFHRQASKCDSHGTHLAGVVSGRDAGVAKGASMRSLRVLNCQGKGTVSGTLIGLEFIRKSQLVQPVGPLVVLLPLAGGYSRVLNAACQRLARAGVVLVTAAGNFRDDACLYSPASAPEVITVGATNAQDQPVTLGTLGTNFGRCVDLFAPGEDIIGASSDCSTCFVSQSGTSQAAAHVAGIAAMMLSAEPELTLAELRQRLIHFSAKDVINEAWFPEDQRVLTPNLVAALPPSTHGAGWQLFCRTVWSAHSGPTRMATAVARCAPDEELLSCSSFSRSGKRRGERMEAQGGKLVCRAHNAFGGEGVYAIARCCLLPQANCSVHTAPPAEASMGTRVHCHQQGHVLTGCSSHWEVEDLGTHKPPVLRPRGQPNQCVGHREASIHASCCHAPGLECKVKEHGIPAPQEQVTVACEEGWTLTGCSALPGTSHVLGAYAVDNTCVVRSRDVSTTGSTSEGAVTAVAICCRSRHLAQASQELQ
Format: binding
How it was run: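 TR-FRET displacement: 0.5 nM biotinylated PCSK9 with 1.25 nM Strep-Eu and 20 nM AlexaFluor-tagged cyclic peptide (final) in 50 mM HEPES pH 7.4, 0.15 M NaCl, 5 mM CaCl2, 0.01% BSA, 0.01% P20, ≥2 h at room temperature. IC50 from sigmoidal fit, converted to Ki via peptide KD; falling Eu counts flagged false positives.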
Work on `C#CCCC[C@@H]1NC(=O)[C@H](Cc2c[nH]c3ccc(F)cc23)NC(=O)[C@H](CCCCN=[N+]=[N-])NC(=O)[C@@H](C)NC(=O)[C@H](CCCCN)NC(=O)CCSCc2cccc(c2)CSCCNC(=O)[C@]2(C)CCCN2C(=O)[C@H](Cc2ccc(OC)cc2)NC(=O)[C@H]([C@H](C)O)NC1=O` [Compound 074] (cyclo(K[dA][Lys(N3)][Trp(5-F)][X53][aThr]Y(Me)[αMeP][X4])) yielded an IC50 of 21 to 50 µM.

Same assay, conditions: PCSK9 Alexa FRET Standard assay, 0.5 nM PCSK9, 20 nM AF cyclic peptide Reagent A; read-out: IC50
For `C[C@@]12CCCN1C(=O)[C@H](Cc1ccc(O)cc1)NC(=O)[C@H](Cc1cnc[nH]1)NC(=O)[C@H](CC(=O)O)NC(=O)[C@H](Cc1c[nH]c3ccc(F)cc13)NC(=O)[C@H](Cc1c[nH]c3ccc(F)cc13)NC(=O)C1=CC=C(CNC(=O)CCSCc3cccc(c3)CSC[C@@H](C(N)=O)NC2=O)O1` [Compound 428] ([Mpa][2Furoyl(5-aminomethyl)][Trp(5-F)][Trp(5-F)]DHY[αMeP]C-NH2; linker 1-9 via mXylylene), the IC50 was 21 to 50 µM. With `C#CCCC[C@@H]1NC(=O)[C@H](Cc2c[nH]c3ccc(F)cc23)NC(=O)[C@H](CCCN=[N+]=[N-])NC(=O)[C@@H](C)NC(=O)[C@H](C)NC(=O)CCSCc2cccc(c2)CSCCNC(=O)[C@]2(C)CCCN2C(=O)[C@H](Cc2ccc(OC)cc2)NC(=O)[C@H]([C@@H](C)O)NC1=O` [Compound 078] (cyclo(A[dA][Orn(N3)][Trp(5-F)][X53]TY(Me)[αMeP][X4])) the IC50 was 0.1 to 1 µM. With `COc1ccc(C[C@@H]2NC(=O)[C@H]([C@@H](C)O)NC(=O)[C@@H]3CCCN3C(=O)[C@H](Cc3c[nH]c4ccc(F)cc34)NC(=O)[C@H](Cc3c[nH]c4ccc(F)cc34)NC(=O)[C@@H](C)NC(=O)[C@H](CCCCN)NC(=O)CCSCc3cc(F)cc(c3)CSC[C@@H](C(N)=O)NC(=O)[C@]3(C)CCCN3C2=O)cc1` [Compound 041] ([Mpa]K[dA][Trp(5-F)][Trp(5-F)]PTY(Me)[αMeP]C-NH2; linker 1-10 via mXylylene(5-F)) the IC50 was 21 to 50 µM. `COc1ccc(C[C@@H]2NC(=O)[C@@H]([C@H](C)O)NC(=O)[C@@H]3C[C@@H](O)CN3C(=O)[C@H](Cc3c[nH]c4ccc(F)cc34)NC(=O)[C@H](Cc3c[nH]c4ccc(F)cc34)NC(=O)[C@@H](C)NC(=O)[C@H](CCCCN)NC(=O)CCSCc3cccc(c3)CSCCNC(=O)[C@]3(C)CCCN3C2=O)cc1` [Compound 084] (cyclo([Hyp][dT]Y(Me)[αMeP][X4]K[dA][Trp(5-F)][Trp(5-F)])) was tested, and the IC50 was 0.1 to 1 µM. Compound `COc1ccc(C[C@@H]2NC(=O)[C@H]([C@@H](C)O)NC(=O)[C@@H]3C[C@H](F)CN3C(=O)[C@H](Cc3c[nH]c4ccc(F)cc34)NC(=O)[C@H](Cc3c[nH]c4ccc(F)cc34)NC(=O)[C@@H](C)NC(=O)[C@H](CCCCN)NC(=O)[C@@H](NC(=O)CC(C)C)CC(=O)NCCOc3ccc(cc3)C[C@@H](C(N)=O)NC(=O)[C@]3(C)CCCN3C2=O)cc1` [Compound 107] (Isovaleryl-DK[dA][Trp(5-F)][Trp(5-F)][Pro(cis-4-F)]TY(Me)[αMeP][AEF]-NH2; lactam 1-10) has an IC50 of 0.1 to 1 µM. `COc1ccc(C[C@@H]2NC(=O)[C@@H]([C@H](C)O)NC(=O)[C@H]3C[C@@H](N)CN3C(=O)[C@H](Cc3c[nH]c4ccc(F)cc34)NC(=O)[C@H](Cc3c[nH]c4ccc(F)cc34)NC(=O)[C@@H](C)NC(=O)[C@H](CCCCN)NC(=O)CCSCc3cccc(c3)CSCCNC(=O)[C@]3(C)CCCN3C2=O)cc1` [Compound 083] (cyclo(K[dA][Trp(5-F)][Trp(5-F)][dPro(cis-4-NH2)][dT]Y(Me)[αMeP][X4])) was tested, and the IC50 was 0.1 to 1 µM. `COc1ccc(C[C@@H]2NC(=O)[C@@H]([C@H](C)O)NC(=O)[C@@H]3C[C@H](O)CN3C(=O)[C@H](Cc3c[nH]c4ccc(F)cc34)NC(=O)[C@H](Cc3c[nH]c4ccc(F)cc34)NC(=O)[C@@H](C)NC(=O)[C@H](CCCCN)NC(=O)CCSCc3cccc(c3)CSCCNC(=O)[C@]3(C)CCCN3C2=O)cc1` [Compound 085] (cyclo(K[dA][Trp(5-F)][Trp(5-F)][cisHyp][dT]Y(Me)[αMeP][X4])) was tested, and the IC50 was 21 to 50 µM. With `C[C@@]12CCCN1C(=O)[C@H](Cc1ccc(O)cc1)NC(=O)[C@H](Cc1cnc[nH]1)NC(=O)[C@H](CC(=O)O)NC(=O)[C@H](Cc1c[nH]c3ccc(F)cc13)NC(=O)[C@H](Cc1c[nH]c3ccc(F)cc13)NC(=O)CNC(=O)[C@@H](CCCN)NC(=O)CCSCc1cccc(c1)CSC[C@@H](C(N)=O)NC2=O` [Compound 356] ([Mpa][dOrn]G[Trp(5-F)][Trp(5-F)]DHY[αMeP]C-NH2; linker 1-10 via mXylylene) the IC50 was 21 to 50 µM. Work on `CC(=O)N[C@@H]1CCCC/C=C/CO[C@H]2C[C@@H](C(N)=O)N(C2)C(=O)[C@H](Cc2ccc(O)cc2)NC(=O)[C@H](Cc2cnc[nH]2)NC(=O)[C@H](CC(=O)O)NC(=O)[C@H](Cc2c[nH]c3ccc(F)cc23)NC(=O)[C@H](Cc2c[nH]c3ccc(F)cc23)NC(=O)CCNC1=O` [Compound 418] yielded an IC50 of 21 to 50 µM.
